Values belong to the compound of their own block, whether it stands above or below them. Calls of active or inactive are those of the source. The rule behind the calls is not given here.
How the values were obtained:
[1] = tested on: Staphylococcus aureus; test: (§1) Inhibition of Staphylococcus aureus ClpXP using ssrA degradation tagged fluorescent GFP substrate in presence of ATP regeneration system pre-incubation for 15 mins before substrate addition by fluorescence assay
[2] = as §1
[3] = target: T1, ATP-dependent Clp protease proteolytic subunit (Staphylococcus aureus (strain NCTC 8325)) (UniProt Q2G036); test: Inhibition of Staphylococcus aureus ClpP using ssrA degradation tagged fluorescent GFP substrate in presence of ATP regeneration system pre-incubation for 15 mins before substrate addition by fluorescence assay
T1 sequence (whole entry): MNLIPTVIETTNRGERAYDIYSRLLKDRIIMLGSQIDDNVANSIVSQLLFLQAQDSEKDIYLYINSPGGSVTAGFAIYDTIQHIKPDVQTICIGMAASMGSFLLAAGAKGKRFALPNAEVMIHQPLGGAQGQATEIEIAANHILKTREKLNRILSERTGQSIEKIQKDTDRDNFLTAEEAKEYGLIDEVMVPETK

[4] = tested on: Staphylococcus aureus; test: Inhibition of Staphylococcus aureus ClpCP at 100 uM using ssrA degradation tagged fluorescent GFP substrate in presence of ATP regeneration system pre-incubation for 15 mins before substrate addition by fluorescence assay
[5] = Inhibition of Staphylococcus aureus ClpPX assessed as reduction in ATP hydrolysis incubated for 2 to 14 mins by malachite green assay
[6] = tested on: Staphylococcus aureus; test: Binding affinity to Staphylococcus aureus ClpXP assessed as induction of collapse of ClpXP proteolytic complex
[7] = tested on: Staphylococcus aureus; test: Inhibition of Staphylococcus aureus ClpXP using ssrA degradation tagged fluorescent GFP substrate in presence of ATP regeneration system pre-incubation for 15 mins before substrate addition by fluorescence assay relative to control
[8] = (§2) Inhibition of ClpXP in Staphylococcus aureus NCTC 8325 assessed as reduction in extracellular proteolytic activity by measuring hemolysis of sheep erythrocytes exposed to supernatants of 20 hrs compound pre-treated Staphylococcus aureus
[9] = tested on: Staphylococcus aureus; test: as §2
[10] = tested on: Staphylococcus aureus; test: Inhibition of ClpXP in Staphylococcus aureus NCTC 8325 assessed as reduction in extracellular proteolytic activity by measuring overall proteolysis of sheep erythrocytes exposed to supernatants of 20 hrs 0.1 to 30 nmol compound pre-treated Staphylococcus aureus
[11] = tested on: Staphylococcus aureus; test: Suppression of virulence factors in Staphylococcus aureus NCTC 8325 assessed as reduction in gamma hemolysin-C protein expression; type: functional, organism-based
[12] = tested on: Staphylococcus aureus; test: Suppression of virulence factors in Staphylococcus aureus NCTC 8325 assessed as reduction in serine protease A expression; type: functional, organism-based
[13] = tested on: Staphylococcus aureus; test: Suppression of virulence factors in Staphylococcus aureus NCTC 8325 assessed as reduction in serine protease B expression; type: functional, organism-based
[14] = tested on: Staphylococcus aureus; test: Suppression of virulence factors in Staphylococcus aureus NCTC 8325 assessed as reduction in serine protease C expression; type: functional, organism-based
[15] = tested on: Staphylococcus aureus; test: Suppression of virulence factors in Staphylococcus aureus NCTC 8325 assessed as reduction in serine protease D expression; type: functional, organism-based
[16] = tested on: Staphylococcus aureus; test: Suppression of virulence factors in Staphylococcus aureus NCTC 8325 assessed as reduction in serine protease E expression; type: functional, organism-based
[17] = tested on: Staphylococcus aureus; test: Suppression of virulence factors in Staphylococcus aureus NCTC 8325 assessed as reduction in serine protease F expression; type: functional, organism-based
[18] = tested on: Staphylococcus aureus; test: Suppression of virulence factors in Staphylococcus aureus NCTC 8325 assessed as reduction in staphopain-A expression; type: functional, organism-based
[19] = species on record: Homo sapiens; test: Inhibition of human ClpXP at 1 to 100 uM preincubated for 15 mins before FITC-labeled casein substrate addition in presence of ATP regeneration mix and creatine kinase
[20] = Half life in mouse plasma at 100 uM by HPLC and MS analysis; type: ADME, cell-free
[21] = tested on: K562; test: Cytotoxicity against human K562 cells assessed as reduction in cell viability up to 100 uM incubated for 72 hrs by cell-titer blue reagent based assay; type: functional
[22] = species on record: Homo sapiens; test: Cytotoxicity against human S-Jurkat cells assessed as reduction in cell viability up to 120 uM incubated for 72 hrs by cell-titer blue reagent based assay; type: functional
[23] = tested on: CCRF-CEM; test: Cytotoxicity against human CCRF-CEM cells assessed as reduction in cell viability up to 120 uM incubated for 72 hrs by cell-titer blue reagent based assay; type: functional
[24] = tested on: Staphylococcus aureus; test: Binding affinity to Staphylococcus aureus ClpPX assessed as induction of covalent modification a 100 um incubated for 60 mins by intact mass spectrometry
[25] = tested on: A549; test: Cytotoxicity against human A549 cells assessed as reduction in residual metabolic activity at 1 to 50 uM incubated for 24 hrs by MTT assay; type: functional, cell-based

Compound: O=C1C2=C(Nc3ccccc3S(=O)(=O)C2c2ccc(C(F)(F)F)cc2)c2ccccc21 (stereo not drawn)
- inhibition (active/not active) [1]: Active

Compound: COc1cccc(C2Sc3ccccc3NC3=C2C(=O)c2ccccc23)c1 (stereo not drawn)
- inhibition (active/not active) [1]: Active

Compound: O=C1C2=C(Nc3ccccc3SC2c2ccc(C(F)(F)F)cc2)c2ccccc21 (stereo not drawn)
- inhibition (active/not active) [1]: Active

Compound: O=C1C2=C(Nc3ccccc3NC2c2ccccc2)c2ccccc21 (stereo not drawn)
- inhibition (active/not active) [1]: Active

Compound: C#Cc1ccc2c(c1)C(=O)C1=C2Nc2ccccc2SC1c1cccc(O)c1 (stereo not drawn)
- inhibition (active/not active) [1]: Active

Compound: O=C1C2=C(Nc3ccccc3SC2c2ccccc2O)c2ccccc21 (stereo not drawn)
- inhibition (active/not active) [1]: inactive

Compound: Cc1ccc(NC(=O)Cc2ccc(NC(=O)N3CCCCc4ccccc43)cc2)cc1C
- IC50 [2]: 1600 nM
- inhibition [3]: inactive
- inhibition [4]: inactive

Compound: N#CC1=C(N)Oc2cc3c(cc2C1c1ccc(OCc2ccc(F)cc2)cc1)OCO3 (stereo not drawn)
- IC50 [2]: 600 nM
- inhibition [3]: inactive
- inhibition [4]: inactive

Compound: O=C1C2=C(Nc3ccccc3SC2c2cccc(O)c2)c2ccccc21 (stereo not drawn)
- IC50 [2]: 1500 nM
- inhibition [3]: inactive
- IC50 [5]: 1600 to 2400 nM
- Activity [6]: Active
- inhibition [7]: 100%
- IC50 [8]: 3000 nM
- inhibition [9]: Dose-dependent effect
- inhibition [10]: Active
- Activity [11]: Dose-dependent effect
- EC50 [11]: 3000 nM
- Activity [12]: Dose-dependent effect
- EC50 [12]: 3000 nM
- Activity [13]: Dose-dependent effect
- EC50 [13]: 3000 nM
- Activity [14]: Dose-dependent effect
- EC50 [14]: 3000 nM
- Activity [15]: Dose-dependent effect
- EC50 [15]: 3000 nM
- Activity [16]: Dose-dependent effect
- EC50 [16]: 3000 nM
- Activity [17]: Dose-dependent effect
- EC50 [17]: 3000 nM
- Activity [18]: Dose-dependent effect
- EC50 [18]: 3000 nM
- inhibition [19]: Active
- half-life at 100 µM [20]: > 4 h
- Activity [21]: Active
- Activity [22]: Active
- Activity [23]: Active
- inhibition [4]: inactive
- Activity [24]: inactive

Compound: COc1ccc(-n2ccnc(SCC(=O)Nc3cc(OC)cc(OC)c3)c2=O)cc1
- IC50 [2]: 2200 nM
- inhibition [3]: inactive
- inhibition [4]: inactive

Compound: O=C1C2=C(Nc3ccccc3SC2c2cccs2)c2ccccc21 (stereo not drawn)
- IC50 [2]: 2500 nM
- inhibition [3]: inactive
- IC50 [5]: 1600 to 2400 nM
- inhibition [19]: Active
- Activity [21]: Active
- Activity [22]: Active
- Activity [23]: Active
- inhibition [4]: inactive

Compound: CC(=O)Oc1ccc(C2Sc3ccccc3NC3=C2C(=O)c2ccccc23)cc1 (stereo not drawn)
- inhibition (active/not active) [1]: Active
- inhibition [7]: 35%

Compound: C#Cc1ccc2c(c1)C(=O)C1=C2Nc2ccccc2SC1c1cc(O)cc(N=[N+]=[N-])c1 (stereo not drawn)
- inhibition (active/not active) [1]: Active

Compound: O=C1C2=C(Nc3ccccc3SC2c2cc(O)cc(O)c2)c2ccccc21 (stereo not drawn)
- inhibition (active/not active) [1]: Active

Compound: O=C1C2=C(Nc3ccccc3SC2c2ccc(F)cc2)c2ccccc21 (stereo not drawn)
- inhibition (active/not active) [1]: Active

Compound: O=C1C2=C(Nc3ccccc3SC2c2cccc(CO)c2)c2ccccc21 (stereo not drawn)
- inhibition (active/not active) [1]: Active
- Activity [25]: inactive

Compound: C#Cc1ccc2c(c1)C1=C(C2=O)C(c2cc(O)cc(N=[N+]=[N-])c2)Sc2ccccc2N1 (stereo not drawn)
- inhibition (active/not active) [1]: Active

Compound: O=C1C2=C(Nc3ccccc3S(=O)(=O)C2c2cccc(O)c2)c2ccccc21 (stereo not drawn)
- inhibition (active/not active) [1]: Active
- Activity [25]: inactive

Compound: O=C1C2=C(Nc3ccccc3SC2c2cccnc2)c2ccccc21 (stereo not drawn)
- inhibition (active/not active) [1]: inactive

Compound: O=C1C2=C(Nc3ccccc3SC2c2ccc(-c3ccccc3)cc2)c2ccccc21 (stereo not drawn)
- inhibition (active/not active) [1]: Active

Compound: COc1ccc2c(c1)SC(c1cccc(O)c1)C1=C(N2)c2ccccc2C1=O (stereo not drawn)
- inhibition (active/not active) [1]: Active

Compound: O=C1C2=C(Nc3ccccc3S(=O)(=O)C2c2ccc(-c3ccccc3)cc2)c2ccccc21 (stereo not drawn)
- inhibition (active/not active) [1]: Active

Compound: O=C1C2=C(Nc3ccccc3SC2c2cccc(O)c2)c2cc(Cl)c(Cl)cc21 (stereo not drawn)
- inhibition (active/not active) [1]: Active

Compound: C#CCCCCOc1cc(O)cc(C2Sc3ccccc3NC3=C2C(=O)c2ccccc23)c1 (stereo not drawn)
- inhibition (active/not active) [1]: Active

Compound: COC(=O)c1ccc(OC(=O)CCc2cc(OC)c(OC)c(OC)c2)cc1
- inhibition [4]: inactive

Compound: C#Cc1ccc2c(c1)C1=C(C2=O)C(c2cccc(O)c2)Sc2ccccc2N1 (stereo not drawn)
- inhibition (active/not active) [1]: Active

Compound: O=C1C2=C(Nc3ccccc3SC2c2cc(O)cc(Br)c2)c2ccccc21 (stereo not drawn)
- inhibition (active/not active) [1]: Active

Continued, values first:

- inhibition (active/not active) [1]: Active
Compound: C#CCNC(=O)c1ccc2c(c1)C(=O)C1=C2Nc2ccccc2SC1c1cccc(O)c1 (stereo not drawn)

- inhibition (active/not active) [1]: Active
Compound: COc1cc(O)cc(C2Sc3ccccc3NC3=C2C(=O)c2ccccc23)c1 (stereo not drawn)

- inhibition (active/not active) [1]: Active
Compound: O=C1C2=C(Nc3ccccc3S(=O)(=O)C2c2ccc(F)cc2)c2ccccc21 (stereo not drawn)

- inhibition (active/not active) [1]: Active
Compound: C#CCNC(=O)c1ccc2c(c1)C1=C(C2=O)C(c2cccc(O)c2)Sc2ccccc2N1 (stereo not drawn)

- inhibition (active/not active) [1]: Active
Compound: O=C1C2=C(Nc3ccccc3SC2c2ccccc2)c2ccccc21 (stereo not drawn)

- inhibition (active/not active) [1]: Active
Compound: C#CCNC(=O)c1ccc2c(c1)C(=O)C1=C2Nc2ccccc2SC1c1cccc(OC)c1 (stereo not drawn)

- inhibition (active/not active) [1]: inactive
Compound: O=C(O)c1ccc(C2Sc3ccccc3NC3=C2C(=O)c2ccccc23)cc1 (stereo not drawn)

- inhibition (active/not active) [1]: Active
Compound: Nc1cccc(C2Sc3ccccc3NC3=C2C(=O)c2ccccc23)c1 (stereo not drawn)

- inhibition (active/not active) [1]: Active
Compound: O=C1C2=C(Nc3ccccc3SC2c2cccc(F)c2)c2ccccc21 (stereo not drawn)

- IC50 [2]: 3100 nM
- inhibition [3]: inactive
- inhibition [4]: inactive
Compound: N#CC1=C(N)Oc2[nH]nc(-c3ccc(Br)cc3)c2C1c1ccc(OC(=O)c2ccco2)cc1 (stereo not drawn)

- inhibition (active/not active) [1]: Active
Compound: COc1cccc(C2C3=C(Nc4ccccc4S2(=O)=O)c2ccccc2C3=O)c1 (stereo not drawn)

- inhibition (active/not active) [1]: Active
Compound: O=C1C2=C(Nc3ccccc3SC2c2ccc(O)cc2)c2ccccc21 (stereo not drawn)

- inhibition (active/not active) [1]: Active
Compound: C#CCNC(=O)c1ccc2c(c1)C1=C(C2=O)C(c2cccc(OC)c2)Sc2ccccc2N1 (stereo not drawn)
